# Data from patent US9969724B2, “Factor IXa inhibitors” (Merck Sharp & Dohme Corp., priority 2014, dated 2018).
# Molecular target: human factor IXa (Homo sapiens (Human), UniProt P00740)
# Test: Determination of Inhibitory Activity Against Factor IXa
# Assay type: biochemical
# Settings: Factor IXa enzyme assay human; read-out: FIXa IC50
# Experimental: Inhibitory activity against factor IXa was tested using the substrate SPECTROFLUOR FIXa (american diagnostica inc.; 500 West Avenue, Stamford, Conn. 06902 USA; Pr. No. 299F) and human factor IXa (american diagnostica inc.; Pr. No. 449b). Test substances were dissolved in buffer A (50 mM α,α,α-tris(hydroxymethyl) methylamine (Tris), 100 mM NaCl, 5 mM CaCl2, 15% (v/v) ethylene glycol, pH 8.0) were mixed with factor IXa (0.1 μg/ml final concentration). The enzyme reaction was started by addition of SPECTROFLUOR FIXa (100 μM final concentration). After incubation for 60 minutes at room temperature, the reaction was stopped by the addition of 20% (v/v) acetic acid solution, and then the fluorescence value was measured (Excitation Wavelength: 355 nm, Emission Wavelength; 460 nm) in a microtiter plate reader (ARVO 1420 Multilabel Counter; PerkinElmer).
# The IC50 was calculated from a dilution series of the test substance with the aid of the software, Symyx Assay Explorer (Symyx Technologies, Inc.).
# human factor IXa, sequence (P00740 227-461): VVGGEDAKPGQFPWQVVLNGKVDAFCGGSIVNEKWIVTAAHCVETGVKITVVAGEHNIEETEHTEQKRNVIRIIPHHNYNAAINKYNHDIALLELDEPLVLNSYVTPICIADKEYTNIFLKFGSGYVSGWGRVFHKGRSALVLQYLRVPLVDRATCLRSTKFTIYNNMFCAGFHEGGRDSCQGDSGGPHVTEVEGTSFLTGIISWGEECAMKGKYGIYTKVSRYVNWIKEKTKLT
# human factor IXa, sequence (P00740 47-191 partner): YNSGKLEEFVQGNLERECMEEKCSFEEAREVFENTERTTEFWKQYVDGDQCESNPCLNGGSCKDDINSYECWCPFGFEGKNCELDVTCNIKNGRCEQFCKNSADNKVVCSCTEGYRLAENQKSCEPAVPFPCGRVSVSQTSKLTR
row,SMILES,IC50
1,"Nc1noc2c(N3CC[C@@H](NC(=O)c4ccc(-n5cnc6ncccc65)cc4Cl)C3)ncc(Cl)c12 [Example 32, (R)—N-(1-(3-Amino-4-chloroisoxazolo[5,4-c]pyridin-7-yl)pyrrolidin-3-yl)-2-chloro-4-(1H-imidazo[4,5-b]pyridin-1-yl)benzamide]",≤ 100 nM
2,"Nc1noc2c(N3CC[C@@H](NC(=O)c4ccc(-c5cnccn5)cc4Cl)C3)ncc(Cl)c12 [Example 33, (R)—N-(1-(3-Amino-4-chloroisoxazolo[5,4-c]pyridin-7-yl)pyrrolidin-3-yl)-2-chloro-4-(pyrazin-2-yl)benzamide]",≤ 100 nM
3,"Cc1ncn(-c2ccc(C(=O)N[C@@H]3CCN(c4cc(C#N)cc5c(N)noc45)C3)c(Cl)c2)n1 [Example 34, (R)—N-(1-(3-Amino-5-cyanobenzo[d]isoxazol-7-yl)pyrrolidin-3-yl)-2-chloro-4-(3-methyl-1H-1,2,4-triazol-1-yl)benzamide]",≤ 100 nM
4,"Nc1noc2c(N3CC[C@@H](NC(=O)c4ccc(-c5ccc(=O)n(CC(F)(F)F)c5)cc4Cl)C3)ncc(Cl)c12 [Example 35, (R)—N-(1-(3-Amino-4-chloroisoxazolo[5,4-c]pyridin-7-yl)pyrrolidin-3-yl)-2-chloro-4-(6-oxo-1-(2,2,2-trifluoroethyl)-1,6-dihydropyridin-3-yl)benzamide]",≤ 100 nM
5,"Nc1noc2c(N3CC[C@@H](NC(=O)c4ccc(-n5cnnc5)cc4)C3)ncc(Cl)c12 [Example 36, (R)—N-(1-(3-Amino-4-chloroisoxazolo[5,4-c]pyridin-7-yl)pyrrolidin-3-yl)-4-(4H-1,2,4-triazol-4-yl)benzamide]",≤ 100 nM
6,"Nc1noc2c(N3CC[C@@H](NC(=O)c4ccc(-c5ccc(=O)n(C(F)F)c5)cc4Cl)C3)ncc(Cl)c12 [Example 37, (R)—N-(1-(3-Amino-4-chloroisoxazolo[5,4-c]pyridin-7-yl)pyrrolidin-3-yl)-2-chloro-4-(1-(difluoromethyl)-6-oxo-1,6-dihydropyridin-3-yl)benzamide]",≤ 100 nM
7,"Nc1noc2c(N3CC[C@@H](NC(=O)c4ccc(-c5ccc6nncn6c5)cc4Cl)C3)ncc(Cl)c12 [Example 38, (R)-4-([1,2,4]Triazolo[4,3-a]pyridin-6-yl)-N-(1-(3-amino-4-chloroisoxazolo[5,4-c]pyridin-7-yl)pyrrolidin-3-yl)-2-chlorobenzamide]",≤ 100 nM
8,"Cc1ncn(-c2ccc(C(=O)N[C@@H]3CCN(c4nc(C(F)F)cc5c(N)noc45)C3)c(Cl)c2)n1 [Example 39, (R)—N-(1-(3-Amino-5-(difluoromethyl)isoxazolo[5,4-c]pyridin-7-yl)pyrrolidin-3-yl)-2-chloro-4-(3-methyl-1H-1,2,4-triazol-1-yl)benzamide]",100 to 1000 nM
9,"Cn1nc(-c2ccc(C(=O)N[C@@H]3CCN(c4ncc(Cl)c5c(N)noc45)C3)c(Cl)c2)ccc1=O [Example 40, (R)—N-(1-(3-Amino-4-chloroisoxazolo[5,4-c]pyridin-7-yl)pyrrolidin-3-yl)-2-chloro-4-(1-methyl-6-oxo-1,6-dihydropyridazin-3-yl)benzamide]",≤ 100 nM
10,"Cc1ncn(-c2ccc(C(=O)N[C@@H]3CCN(c4nc(C#N)cc5c(N)noc45)C3)c(Cl)c2)n1 [Example 41, (R)—N-(1-(3-Amino-5-cyanoisoxazolo[5,4-c]pyridin-7-yl)pyrrolidin-3-yl)-2-chloro-4-(3-methyl-1H-1,2,4-triazol-1-yl)benzamide]",≤ 100 nM
11,"Cc1cc2c(N)noc2c(N2CC[C@@H](NC(=O)c3ccc(-n4cc(CCO)nn4)cc3Cl)C2)n1 [Example 42, (R)—N-(1-(3-Amino-5-methylisoxazolo[5,4-c]pyridin-7-yl)pyrrolidin-3-yl)-2-chloro-4-(4-(2-hydroxyethyl)-1H-1,2,3-triazol-1-yl)benzamide]",≤ 100 nM
12,"Nc1noc2c(N3CC[C@@H](NC(=O)c4ccc(-n5cnnc5C(F)(F)F)cc4Cl)C3)ncc(Cl)c12 [Example 43, (R)—N-(1-(3-Amino-4-chloroisoxazolo[5,4-c]pyridin-7-yl)pyrrolidin-3-yl)-2-chloro-4-(3-(trifluoromethyl)-4H-1,2,4-triazol-4-yl)benzamide]",≤ 100 nM
